In US10967078B2, “Radiolabelled mGluR2 PET ligands” (Janssen Pharmaceutica NV, priority 2014, dated 2021):

What was measured:
mGlu3 = mGlu3 (Homo sapiens, UniProt Q14832); test: Selectivity for mGluR2 versus mGluR3; type: biochemical
mGlu8 = mGlu8 (Homo sapiens, UniProt O00222); test: Selectivity for mGluR2 versus mGluR8; type: biochemical
mGlu4 = mGlu4 (Homo sapiens, UniProt Q14833); test: Selectivity for mGluR2 versus mGluR4; type: biochemical
mGluR2 [1] = target: T1, mGluR2 (Mus musculus, UniProt Q14BI2); test: In vitro autoradiography binding on mGluR2 KO and WT mouse brain sections; details: for Cortex WT (TB)/cortex WT (block Co. No. 1) / spec binding, cortex WT: WT mouse cortex; for Cortex WT (TB)/cortex WT (block Co. No. 1) / spec binding, cortex WT / Striatum WT (TB)/striatum WT (block Co. No. 1) / spec binding, striatum WT: block with 10 μM Co. No. 1; for Striatum WT (TB)/striatum WT (block Co. No. 1) / spec binding, striatum WT: WT mouse striatum; for difference in tracer binding to WT and mGluR2 KO mouse brain sections: in words; for Cortex WT (TB)/Cortex KO (TB) / Striatum WT (TB)/Striatum KO (TB): total binding ratio, WT versus mGluR2 KO mouse brain sections
T1 construct: horizontal sections of mGluR2 KO and WT mouse brain and of normal female Wistar rat brain; from tissue; host or cells: mouse brain sections (WT and mGluR2 KO), 20 µm
T1 sequence (Q14BI2 19-872): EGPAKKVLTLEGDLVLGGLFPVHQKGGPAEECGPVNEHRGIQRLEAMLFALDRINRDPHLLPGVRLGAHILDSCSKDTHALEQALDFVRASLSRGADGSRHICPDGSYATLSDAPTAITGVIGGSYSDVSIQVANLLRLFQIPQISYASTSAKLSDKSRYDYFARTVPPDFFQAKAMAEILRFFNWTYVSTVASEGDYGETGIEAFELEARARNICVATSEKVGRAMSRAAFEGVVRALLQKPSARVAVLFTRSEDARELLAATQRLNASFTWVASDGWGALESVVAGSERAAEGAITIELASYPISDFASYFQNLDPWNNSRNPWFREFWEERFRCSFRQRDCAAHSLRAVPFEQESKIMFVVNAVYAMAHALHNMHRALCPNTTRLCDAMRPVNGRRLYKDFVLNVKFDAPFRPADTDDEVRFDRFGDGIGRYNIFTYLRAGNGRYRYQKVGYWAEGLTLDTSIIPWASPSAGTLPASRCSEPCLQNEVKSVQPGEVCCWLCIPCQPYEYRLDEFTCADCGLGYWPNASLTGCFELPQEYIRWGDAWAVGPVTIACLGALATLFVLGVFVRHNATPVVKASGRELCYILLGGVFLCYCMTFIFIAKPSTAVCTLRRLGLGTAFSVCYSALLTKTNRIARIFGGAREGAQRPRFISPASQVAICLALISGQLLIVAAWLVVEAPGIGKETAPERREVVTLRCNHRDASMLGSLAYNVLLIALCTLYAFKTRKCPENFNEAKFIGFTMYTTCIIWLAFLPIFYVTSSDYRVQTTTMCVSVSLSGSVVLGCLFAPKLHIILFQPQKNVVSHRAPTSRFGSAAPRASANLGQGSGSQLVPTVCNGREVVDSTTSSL
Experimental: (§1) In vitro autoradiography studies were performed on horizontal sections of mGluR2 KO and WT mouse brain and of normal female Wistar rat brain (20 μm). The sections were preincubated in 50 mM Tris-HCl (MgCl2 2 mM, CaCl2 2 mM; pH 7.0) for 10 min (two times) at room temperature and dried. Next, the brain sections were incubated with tracer [^11C]-2, [^11C]-5, [^11C]-4, [^11C]-1 or [^18F]-3 diluted in the same Tris-HCl buffer as used for the preincubation additionally containing 0.1% BSA or with this tracer solution in the presence of 10 μM Co. No. 2 or Co. No. 1. The mouse brain sections were incubated with 17 kBq of carbon-11 labeled tracer and 1.7 kBq of fluorine-18 labeled tracer. For the rat brain sections this was 44 kBq of carbon-11 labeled tracer and 0.44 kBq of fluorine-18 labeled tracer. After 30 min of incubation, the brain sections were washed three times for 5 min in ice-cold Tris-HCl 50 mM ((MgCl2 2 mM, CaCl2 2 mM; pH 7.0+0.1% BSA buffer). After a quick dip in purified ice-cold water, the slides were dried. Autoradiograms were obtained by exposing the slides overnight to a high-performance phosphor storage screen (super-resolution screen; Perkin Elmer, Waltham, USA). The screens were read using a Cyclone Plus system (Perkin Elmer) and analysed using Optiquant software (Perkin Elmer). The radioactivity concentration in the autoradiograms was expressed in digital light units (DLU)/mm^2.
(§2) To obtain additional information on the specificity of the tracer binding to mGluR2, in vitro autoradiography binding studies were performed on mGluR2 KO and WT mouse brain sections and on normal rat brain sections in presence or absence of a high concentration of mGluR2 NAM compounds (Co. No. 1 or Co. No. 2).

mGluR2 [2] = target: T2, mGluR2 (Rattus norvegicus, UniProt P31421); test: In vitro autoradiography binding on normal female Wistar rat brain sections; details: in words
T2 construct: horizontal sections of mGluR2 KO and WT mouse brain and of normal female Wistar rat brain; from tissue; host or cells: normal female Wistar rat brain sections, 20 µm
T2 sequence (P31421 19-872): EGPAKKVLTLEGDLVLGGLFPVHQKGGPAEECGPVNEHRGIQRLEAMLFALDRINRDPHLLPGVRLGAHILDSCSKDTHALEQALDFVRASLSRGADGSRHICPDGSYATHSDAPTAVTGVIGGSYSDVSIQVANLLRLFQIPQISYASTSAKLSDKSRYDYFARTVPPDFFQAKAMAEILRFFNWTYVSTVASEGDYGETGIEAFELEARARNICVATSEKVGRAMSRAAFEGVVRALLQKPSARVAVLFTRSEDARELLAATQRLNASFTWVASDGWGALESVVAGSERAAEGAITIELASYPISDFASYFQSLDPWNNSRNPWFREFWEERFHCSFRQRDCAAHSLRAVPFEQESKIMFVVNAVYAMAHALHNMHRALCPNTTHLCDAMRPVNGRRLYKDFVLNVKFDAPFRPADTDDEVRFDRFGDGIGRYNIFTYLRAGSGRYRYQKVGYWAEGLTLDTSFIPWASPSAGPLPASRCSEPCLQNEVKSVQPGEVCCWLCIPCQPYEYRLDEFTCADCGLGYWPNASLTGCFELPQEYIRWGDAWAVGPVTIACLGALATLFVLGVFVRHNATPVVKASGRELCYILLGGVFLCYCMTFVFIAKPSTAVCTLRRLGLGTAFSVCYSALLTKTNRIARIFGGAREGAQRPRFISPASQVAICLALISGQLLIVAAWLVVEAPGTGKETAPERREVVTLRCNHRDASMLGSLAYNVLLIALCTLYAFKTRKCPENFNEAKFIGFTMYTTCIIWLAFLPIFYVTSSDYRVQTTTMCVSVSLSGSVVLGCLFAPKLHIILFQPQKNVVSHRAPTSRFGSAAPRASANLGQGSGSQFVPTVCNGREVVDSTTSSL
Experimental: as §1, §2

[3] = Biodistribution studies in normal female Wistar rats; type: in vivo, rat; details: for % ID blood / SUV blood / % ID bone / SUV bone / % ID carcass / % ID cerebellum / SUV cerebellum / SUV cerebrum + cerebellum / % ID cerebrum total / % ID cortex / SUV cortex / % ID heart / % ID hippocampus / SUV hippocampus / % ID intestines / % ID kidneys / % ID liver / % ID lungs / % ID muscle / SUV muscle / % ID rest of cerebrum / SUV rest of cerebrum / % ID spleen + pancreas / % ID stomach / % ID striatum / SUV striatum / % ID urine / SUV whole cerebrum: mean n=3; for SUV cerebrum + cerebellum / Total brain uptake: cerebrum + cerebellum; for Total brain uptake: n=3
Experimental: High-performance liquid chromatography (HPLC) analysis was performed on a LaChrom Elite® HPLC system (Hitachi, Armstadt, Germany) connected to a UV spectrometer. For the analysis of radiolabeled compounds, the HPLC eluate, after passage through the UV detector, was led over a shielded 3-inch NaI(Tl) scintillation detector connected to a single channel analyser (Gabi box, Raytest, Straubenhardt, Germany). The output signal was recorded and analysed using a GINA Star data acquisition system (Raytest, Straubenhardt, Germany). Radioactivity in samples of biodistribution studies was quantified using an automated gamma counter equipped with a 3-inch NaI(Tl) well crystal coupled to a multichannel analyser (Wallac 2480 Wizard, Wallac, Turku, Finland). Results were corrected for background radiation, physical decay and counter dead time. Animals were housed in individually ventilated cages in a thermoregulated (˜22° C.), humidity-controlled facility under a 12 h/12 h light/dark cycle with access to food and water ad libitum. All animal experiments were conducted according to the Belgian code of practice for the care and use of animals, after approval from the local University Ethics Committee for Animals.
Biodistribution studies of [^11C]-2 and [^11C]-1 were carried out in healthy female Wister rats (body weight 185-220 g) at 2 min, 30 min and 60 min post injection (p.i.) (n=3/time point). Rats were injected with about 18 MBq of the tracer via a tail vein under anesthesia (2.5% isoflurane in O2 at 1 L/min flow rate) and sacrificed by decapitation at the above specified time points. Blood and major organs were collected in tared tubes and weighed. The radioactivity in blood, organs and other body parts was measured using an automated gamma counter. For calculation of total blood radioactivity, blood mass was assumed to be 7% of the body mass. For calculation of total muscle and total bone radioactivity, muscle and bone mass were assumed to be 40% and 12% of the body mass, respectively.

Sequence of mGlu3 (Q14832 23-879): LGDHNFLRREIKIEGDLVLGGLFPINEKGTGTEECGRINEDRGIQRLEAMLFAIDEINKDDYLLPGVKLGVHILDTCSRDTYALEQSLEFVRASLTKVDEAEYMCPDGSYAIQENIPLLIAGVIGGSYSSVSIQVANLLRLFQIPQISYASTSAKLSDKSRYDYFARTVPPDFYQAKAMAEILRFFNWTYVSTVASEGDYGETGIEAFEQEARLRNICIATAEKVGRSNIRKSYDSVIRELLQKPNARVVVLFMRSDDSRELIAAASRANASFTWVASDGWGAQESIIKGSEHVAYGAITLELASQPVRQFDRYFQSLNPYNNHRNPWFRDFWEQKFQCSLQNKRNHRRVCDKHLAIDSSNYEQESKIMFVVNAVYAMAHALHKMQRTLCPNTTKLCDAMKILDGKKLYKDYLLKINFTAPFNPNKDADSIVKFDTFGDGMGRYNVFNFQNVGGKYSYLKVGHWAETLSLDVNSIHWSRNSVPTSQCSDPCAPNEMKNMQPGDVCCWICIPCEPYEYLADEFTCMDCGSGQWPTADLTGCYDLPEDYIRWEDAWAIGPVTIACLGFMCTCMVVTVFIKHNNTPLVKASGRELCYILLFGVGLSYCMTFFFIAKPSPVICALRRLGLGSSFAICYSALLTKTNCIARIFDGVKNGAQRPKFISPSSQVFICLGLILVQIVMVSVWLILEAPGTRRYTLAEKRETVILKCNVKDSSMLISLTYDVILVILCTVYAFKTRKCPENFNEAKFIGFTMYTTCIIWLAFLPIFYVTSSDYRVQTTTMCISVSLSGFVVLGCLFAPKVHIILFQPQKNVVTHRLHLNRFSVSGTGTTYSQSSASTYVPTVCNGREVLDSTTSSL
Sequence of mGlu8 (O00222 34-908): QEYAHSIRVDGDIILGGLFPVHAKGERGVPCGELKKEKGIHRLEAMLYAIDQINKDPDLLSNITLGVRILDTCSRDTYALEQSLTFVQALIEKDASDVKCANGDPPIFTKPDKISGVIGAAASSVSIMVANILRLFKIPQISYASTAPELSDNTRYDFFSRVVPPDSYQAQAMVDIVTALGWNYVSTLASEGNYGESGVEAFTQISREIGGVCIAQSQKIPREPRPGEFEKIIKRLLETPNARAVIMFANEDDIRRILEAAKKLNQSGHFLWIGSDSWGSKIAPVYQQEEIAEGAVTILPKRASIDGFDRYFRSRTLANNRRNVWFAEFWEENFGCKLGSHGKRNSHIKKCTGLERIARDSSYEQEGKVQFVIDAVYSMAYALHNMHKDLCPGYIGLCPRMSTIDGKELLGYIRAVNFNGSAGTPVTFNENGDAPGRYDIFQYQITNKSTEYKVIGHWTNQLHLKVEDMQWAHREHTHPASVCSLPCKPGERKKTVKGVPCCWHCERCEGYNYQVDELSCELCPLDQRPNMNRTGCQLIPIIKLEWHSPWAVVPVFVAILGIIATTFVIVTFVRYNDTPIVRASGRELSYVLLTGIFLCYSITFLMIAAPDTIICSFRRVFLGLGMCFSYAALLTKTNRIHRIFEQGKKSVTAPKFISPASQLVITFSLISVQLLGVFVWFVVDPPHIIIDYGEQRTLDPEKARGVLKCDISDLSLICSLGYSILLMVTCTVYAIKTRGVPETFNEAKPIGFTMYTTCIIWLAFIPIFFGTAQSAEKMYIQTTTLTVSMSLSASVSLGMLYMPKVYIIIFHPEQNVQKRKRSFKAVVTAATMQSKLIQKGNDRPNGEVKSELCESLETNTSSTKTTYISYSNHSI
Sequence of mGlu4 (Q14833 33-912): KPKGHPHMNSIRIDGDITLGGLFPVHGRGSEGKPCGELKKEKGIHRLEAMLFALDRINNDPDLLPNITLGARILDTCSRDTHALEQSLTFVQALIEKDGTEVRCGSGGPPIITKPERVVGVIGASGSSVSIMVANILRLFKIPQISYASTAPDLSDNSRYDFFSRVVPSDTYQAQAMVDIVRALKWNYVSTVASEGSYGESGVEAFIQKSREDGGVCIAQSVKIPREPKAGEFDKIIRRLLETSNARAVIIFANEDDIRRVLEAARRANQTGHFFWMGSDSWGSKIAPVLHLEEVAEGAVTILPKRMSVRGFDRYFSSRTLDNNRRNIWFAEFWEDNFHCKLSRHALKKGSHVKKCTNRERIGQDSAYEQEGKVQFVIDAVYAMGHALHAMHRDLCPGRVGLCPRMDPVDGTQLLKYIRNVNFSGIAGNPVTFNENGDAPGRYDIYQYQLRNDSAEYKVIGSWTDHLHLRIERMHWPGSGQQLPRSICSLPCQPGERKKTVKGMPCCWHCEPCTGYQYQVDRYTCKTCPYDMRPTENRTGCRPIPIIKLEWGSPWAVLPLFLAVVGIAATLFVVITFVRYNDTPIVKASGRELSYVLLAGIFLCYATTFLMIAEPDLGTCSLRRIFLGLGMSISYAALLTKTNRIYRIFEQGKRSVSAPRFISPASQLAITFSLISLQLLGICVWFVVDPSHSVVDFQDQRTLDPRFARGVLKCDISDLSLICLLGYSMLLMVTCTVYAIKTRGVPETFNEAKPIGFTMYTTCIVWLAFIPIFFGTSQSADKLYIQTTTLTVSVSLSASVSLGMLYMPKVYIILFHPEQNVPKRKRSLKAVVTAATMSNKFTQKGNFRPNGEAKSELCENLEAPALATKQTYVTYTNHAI

CNc1cc(-c2cnn3c2C(=O)N(c2ccc(C(F)(F)F)cc2)C[C@@H]3C)ccn1 [Co. No. 2, (7S)-7-Methyl-3-[2-(methylamino)-4-pyridyl]-5-[4-(trifluoromethyl)phenyl]-6,7-dihydropyrazolo[1,5-a]pyrazin-4-one]
Selectivity over mGlu3 (mGlu3): 44.7
Selectivity over mGlu8 (mGlu8): 1737.8
Selectivity over mGlu4 (mGlu4): 8709.6

C[C@H]1CN(c2ccc(C(F)(F)F)cc2)C(=O)c2c(-c3ccnc([11CH3])c3)cnn21 [[^11C]-1]
Cortex WT (TB)/cortex WT (block Co. No. 1) (mGluR2 [1]): ~21.5
spec binding, cortex WT (mGluR2 [1]): (~95% spec
Striatum WT (TB)/striatum WT (block Co. No. 1) (mGluR2 [1]): ~11.8
spec binding, striatum WT (mGluR2 [1]): (~92% specific
difference in tracer binding to WT and mGluR2 KO mouse brain sections (mGluR2 [1]): significant difference
Cortex WT (TB)/Cortex KO (TB) (mGluR2 [1]): ~7.1
Striatum WT (TB)/Striatum KO (TB) (mGluR2 [1]): ~3.8
total binding to normal rat brain sections (mGluR2 [2]): less pronounced
2 min - to- 30 min wash-out ratio ([3]; blood): 1.86
% ID blood ([3]; blood, 2 min p.i.): 6.3 % ID
SUV blood ([3]; blood, 2 min p.i.): 0.90 SUV
% ID blood ([3]; blood, 30 min p.i.): 3.4 % ID
SUV blood ([3]; blood, 30 min p.i.): 0.49 SUV
2 min - to- 30 min wash-out ratio ([3]; bone): 2.11
% ID bone ([3]; bone, 2 min p.i.): 5.7 % ID
SUV bone ([3]; bone, 2 min p.i.): 0.48 SUV
% ID bone ([3]; bone, 30 min p.i.): 2.7 % ID
SUV bone ([3]; bone, 30 min p.i.): 0.23 SUV
% ID carcass ([3]; 2 min p.i.): 43.4 % ID
% ID carcass ([3]; 30 min p.i.): 61.5 % ID
2 min - to- 30 min wash-out ratio ([3]; cerebellum): 2.90
% ID cerebellum ([3]; cerebellum, 2 min p.i.): 0.340 % ID
SUV cerebellum ([3]; cerebellum, 2 min p.i.): 2.60 SUV
% ID cerebellum ([3]; cerebellum, 30 min p.i.): 0.120 % ID
SUV cerebellum ([3]; cerebellum, 30 min p.i.): 0.90 SUV
SUV cerebrum + cerebellum ([3]; 2 min p.i.): 2.82 SUV
Total brain uptake ([3]; 2 min p.i.): 2.0 % ID
Total brain uptake ([3]; 2 min p.i., listed as [^11C-1]): 2.01 ± 0.24 % ID
SUV cerebrum + cerebellum ([3]; 30 min p.i.): 0.95 SUV
Total brain uptake ([3]; 30 min p.i.): 0.69 ± 0.05 % ID
% ID cerebrum total ([3]; 2 min p.i.): 1.643 % ID
% ID cerebrum total ([3]; 30 min p.i.): 0.567 % ID
2 min - to- 30 min wash-out ratio ([3]; cortex): 3.22
% ID cortex ([3]; cortex, 2 min p.i.): 0.131 % ID
SUV cortex ([3]; cortex, 2 min p.i.): 3.51 SUV
% ID cortex ([3]; cortex, 30 min p.i.): 0.039 % ID
SUV cortex ([3]; cortex, 30 min p.i.): 1.09 SUV
% ID heart ([3]; 2 min p.i.): 0.6 % ID
% ID heart ([3]; 30 min p.i.): 0.5 % ID
2 min - to- 30 min wash-out ratio ([3]; hippocampus): 2.76
% ID hippocampus ([3]; hippocampus, 2 min p.i.): 0.083 % ID
SUV hippocampus ([3]; hippocampus, 2 min p.i.): 2.41 SUV
% ID hippocampus ([3]; hippocampus, 30 min p.i.): 0.031 % ID
SUV hippocampus ([3]; hippocampus, 30 min p.i.): 0.87 SUV
% ID intestines ([3]; 2 min p.i.): 10.1 % ID
% ID intestines ([3]; 30 min p.i.): 11.1 % ID
% ID kidneys ([3]; 2 min p.i.): 2.9 % ID
% ID kidneys ([3]; 30 min p.i.): 1.6 % ID
% ID liver ([3]; 2 min p.i.): 31.2 % ID
% ID liver ([3]; 30 min p.i.): 14.2 % ID
% ID lungs ([3]; 2 min p.i.): 2.1 % ID
% ID lungs ([3]; 30 min p.i.): 0.9 % ID
2 min - to- 30 min wash-out ratio ([3]; muscle): 0.61
% ID muscle ([3]; muscle, 2 min p.i.): 15.1 % ID
SUV muscle ([3]; muscle, 2 min p.i.): 0.38 SUV
% ID muscle ([3]; muscle, 30 min p.i.): 24.9 % ID
SUV muscle ([3]; muscle, 30 min p.i.): 0.62 SUV
2 min - to- 30 min wash-out ratio ([3]; rest of cerebrum): 3.00
% ID rest of cerebrum ([3]; rest of cerebrum, 2 min p.i.): 1.286 % ID
SUV rest of cerebrum ([3]; rest of cerebrum, 2 min p.i.): 2.83 SUV
% ID rest of cerebrum ([3]; rest of cerebrum, 30 min p.i.): 0.445 % ID
SUV rest of cerebrum ([3]; rest of cerebrum, 30 min p.i.): 0.94 SUV
% ID spleen + pancreas ([3]; 2 min p.i.): 1.9 % ID
% ID spleen + pancreas ([3]; 30 min p.i.): 1.2 % ID
% ID stomach ([3]; 2 min p.i.): 2.8 % ID
% ID stomach ([3]; 30 min p.i.): 6.4 % ID
2 min - to- 30 min wash-out ratio ([3]; striatum): 2.68
% ID striatum ([3]; striatum, 2 min p.i.): 0.143 % ID
SUV striatum ([3]; striatum, 2 min p.i.): 2.58 SUV
% ID striatum ([3]; striatum, 30 min p.i.): 0.052 % ID
SUV striatum ([3]; striatum, 30 min p.i.): 0.97 SUV
% ID urine ([3]; 2 min p.i.): 0.1 % ID
% ID urine ([3]; 30 min p.i.): 0.1 % ID
2 min - to- 30 min wash-out ratio ([3]; whole cerebrum): 2.98
SUV whole cerebrum ([3]; whole cerebrum, 2 min p.i.): 2.83 SUV
SUV whole cerebrum ([3]; whole cerebrum, 30 min p.i.): 0.95 SUV

C[C@H]1CN(c2ccc(S(F)(F)(F)(F)F)cc2)C(=O)c2c(-c3ccnc(N[11CH3])c3)cnn21 [[^11C]-4]
Cortex WT (TB)/cortex WT (block Co. No. 1) (mGluR2 [1]): ~3.8
spec binding, cortex WT (mGluR2 [1]): (~74% spec
Striatum WT (TB)/striatum WT (block Co. No. 1) (mGluR2 [1]): ~2.6
spec binding, striatum WT (mGluR2 [1]): (~62% spec
difference in tracer binding to WT and mGluR2 KO mouse brain sections (mGluR2 [1]): less pronounced
Cortex WT (TB)/Cortex KO (TB) (mGluR2 [1]): ~2.6
Striatum WT (TB)/Striatum KO (TB) (mGluR2 [1]): ~2.2

COc1nc(N2C[C@H](C)n3ncc(-c4ccnc(N[11CH3])c4)c3C2=O)ccc1C(F)(F)F [[^11C]-5]
Cortex WT (TB)/cortex WT (block Co. No. 1) (mGluR2 [1]): ~2.4
spec binding, cortex WT (mGluR2 [1]): (~58% spec
Striatum WT (TB)/striatum WT (block Co. No. 1) (mGluR2 [1]): ~1.9
spec binding, striatum WT (mGluR2 [1]): (~47% spec
difference in tracer binding to WT and mGluR2 KO mouse brain sections (mGluR2 [1]): less pronounced
Cortex WT (TB)/Cortex KO (TB) (mGluR2 [1]): ~2.6
Striatum WT (TB)/Striatum KO (TB) (mGluR2 [1]): ~1.9
